Test results from ChEMBL document CHEMBL3714742, “Pyrimido (4,5-b) indole derivatives” (2003).
pIC50: −log10 of the molar value. The source made the active and inactive calls. No rule for the calls is given here.

Key:
[1] = system: Mus musculus; assay: Inhibition of anti-CD3 antibody-induced IL4 production in Balb/c mouse dosed intravenously 5 mins before anti-CD3 antibody injection and measured 2 hrs post-challenge by ELISA; type: functional, organism-based
[2] = system: Mus musculus; assay: Inhibition of anti-CD3 antibody-induced IL2 production in Balb/c mouse dosed intravenously 5 mins before anti-CD3 antibody injection and measured 2 hrs post-challenge by ELISA; type: functional, organism-based
[3] = molecular target: T1, Dual specificity mitogen-activated protein kinase kinase 7 (Homo sapiens, UniProt O14733); assay: Inhibition of GST-tagged human MKK7 expressed in Escherichia coli (BL21(DE3) pLysS) co-expressing human MEKK catalytic domain using biotinylated and GST-tagged rat GST-KN-SAPKalpha substrate incubated for 1 hr by time-resolved fluorescence based assay
T1 sequence (O14733 whole entry): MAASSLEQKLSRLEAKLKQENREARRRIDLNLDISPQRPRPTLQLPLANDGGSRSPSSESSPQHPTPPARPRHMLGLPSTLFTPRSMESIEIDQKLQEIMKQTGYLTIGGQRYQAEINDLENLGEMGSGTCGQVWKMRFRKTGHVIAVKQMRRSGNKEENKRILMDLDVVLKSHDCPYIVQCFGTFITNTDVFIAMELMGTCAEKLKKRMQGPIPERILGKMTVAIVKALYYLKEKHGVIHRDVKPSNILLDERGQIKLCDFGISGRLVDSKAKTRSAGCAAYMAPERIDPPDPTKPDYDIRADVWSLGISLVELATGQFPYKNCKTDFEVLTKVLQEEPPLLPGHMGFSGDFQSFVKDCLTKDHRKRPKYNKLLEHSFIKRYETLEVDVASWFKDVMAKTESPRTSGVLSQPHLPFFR

[4] = system: Mus musculus; assay: Inhibition of anti-CD3 antibody-induced IFNgamma production in Balb/c mouse dosed intravenously 5 mins before anti-CD3 antibody injection and measured 2 hrs post-challenge by ELISA; type: functional, organism-based

Compound | pIC50 [3] | inhibition [1] | inhibition [2] | inhibition [4]
CC1CC(C)CN(c2ncnc3[nH]c4ccc(C(N)=O)cc4c23)C1 (centres undefined) | > 6.00 | Active | Active | Active
CN(Cc1ccccc1)c1nc(N)nc2[nH]c3ccc(O)cc3c12 | > 6.00 | Active | Active | Active
NC(=O)c1ccc2[nH]c3ncnc(N4CCC(N)C4)c3c2c1 (centres undefined) | > 6.00 | Active | Active | Active
NC(=O)c1ccc2[nH]c3ncnc(NC4CCCC4)c3c2c1 | > 6.00 | Active | Active | Active
Oc1ccc2[nH]c3ncnc(NC4CCOCC4)c3c2c1 | > 6.00 | Active | Active | Active
CNC1CCN(c2ncnc3[nH]c4ccc(C(N)=O)cc4c23)C1 (centres undefined) | > 6.00 | Active | Active | Active
OCC1CCCN(c2ncnc3[nH]c4ccc(O)cc4c23)C1 (centres undefined) | > 6.00 | Active | Active | Active
OCCCCN1CCN(c2ncnc3[nH]c4ccc(O)cc4c23)CC1 | > 6.00 | Active | Active | Active
NC(=O)c1ccc2[nH]c3ncnc(N4CCCC(O)C4)c3c2c1 (centres undefined) | > 6.00 | Active | Active | Active
CCCN(CCC)c1ncnc2[nH]c3ccc(C(N)=O)cc3c12 | > 6.00 | Active | Active | Active
CC(C)N(C)c1ncnc2[nH]c3ccc(O)cc3c12 | > 6.00 | Active | Active | Active
CN(CCO)c1nc(N)nc2[nH]c3ccc(O)cc3c12 | > 6.00 | Active | Active | Active
OC[C@@H]1CCCN1c1ncnc2[nH]c3ccc(O)cc3c12 | > 6.00 | Active | Active | Active
OCC1CCCCN1c1ncnc2[nH]c3ccc(O)cc3c12 (centres undefined) | > 6.00 | Active | Active | Active
CN(CCO)c1ncnc2[nH]c3ccc(C(N)=O)cc3c12 | > 6.00 | Active | Active | Active
CCN(CCO)c1ncnc2[nH]c3ccc(O)cc3c12 | > 6.00 | Active | Active | Active
NC(=O)c1ccc2[nH]c3ncnc(N4CCCCC4CO)c3c2c1 (centres undefined) | > 6.00 | Active | Active | Active
NC(=O)c1ccc2[nH]c3ncnc(N4CCC(CCO)CC4)c3c2c1 | > 6.00 | Active | Active | Active
NCCNc1ncnc2[nH]c3ccc(C(N)=O)cc3c12 | > 6.00 | Active | Active | Active
Oc1ccc2[nH]c3ncnc(NCCc4c[nH]cn4)c3c2c1 | > 6.00 | Active | Active | Active
NC(=O)c1ccc2[nH]c3ncnc(NC4CCCCCC4)c3c2c1 | > 6.00 | Active | Active | Active
OCC1(Nc2ncnc3[nH]c4ccc(O)cc4c23)CCCC1 | > 6.00 | Active | Active | Active
NC(=O)c1ccc2[nH]c3ncnc(N(CCO)Cc4ccccc4)c3c2c1 | > 6.00 | Active | Active | Active
CC1CCCCN1c1ncnc2[nH]c3ccc(O)cc3c12 (centres undefined) | > 6.00 | Active | Active | Active
CC1CC(C)CN(c2ncnc3[nH]c4ccc(O)cc4c23)C1 (centres undefined) | 6.00 | Active | Active | Active
Cc1nc(NCCO)c2c(n1)[nH]c1ccc(O)cc12 | 6.00 | Active | Active | Active
CC(C)(C)OC(=O)NC1CCCN(c2ncnc3[nH]c4ccc(C(N)=O)cc4c23)C1 (centres undefined) | > 6.00 | Active | Active | Active
CC(C)(C)OC(=O)NCCCNc1ncnc2[nH]c3ccc(C(N)=O)cc3c12 | > 6.00 | Active | Active | Active
C[C@@H](CO)Nc1ncnc2[nH]c3ccc(O)cc3c12 | > 6.00 | Active | Active | Active

More lines, main results first:

pIC50 [3] | Compound | inhibition [1] | inhibition [2] | inhibition [4]
> 6.00 | Oc1ccc2[nH]c3ncnc(N4CCNCC4)c3c2c1 | Active | Active | Active
> 6.00 | COC1CCN(c2nc(N)nc3[nH]c4ccc(O)cc4c23)CC1 | Active | Active | Active
> 6.00 | Oc1ccc2[nH]c3ncnc(N4CCOCC4)c3c2c1 | Active | Active | Active
6.00 | Cc1nc(N2CCCC2)c2c(n1)[nH]c1ccc(O)cc12 | Active | Active | Active
> 6.00 | CC1CCCCN1c1nc(N)nc2[nH]c3ccc(O)cc3c12 (centres undefined) | Active | Active | Active
6.00 | COc1cc2[nH]c3nc(N)nc(N4CCOCC4)c3c2cc1OC | Active | Active | Active
> 6.00 | CN(c1nc(N)nc2[nH]c3ccc(O)cc3c12)C1CCCCC1 | Active | Active | Active
> 6.00 | Nc1nc(N2CCC3(CC2)OCCO3)c2c(n1)[nH]c1ccc(O)cc12 | Active | Active | Active
> 6.00 | COC(=O)c1ccc2[nH]c3nc(N)nc(N4CCCCC4)c3c2c1 | Active | Active | Active
6.00 | Cc1nc(N2CCC(CO)CC2)c2c(n1)[nH]c1ccc(O)cc12 | Active | Active | Active
6.00 | Cc1nc(N2CCOCC2)c2c(n1)[nH]c1ccc(O)cc12 | Active | Active | Active
> 6.00 | Cc1nc(N2CCCCC2C)c2c(n1)[nH]c1ccc(O)cc12 (centres undefined) | Active | Active | Active
> 6.00 | O=C1CCN(c2ncnc3[nH]c4ccc(O)cc4c23)CC1 | Active | Active | Active
> 6.00 | Cc1nc(N2CCCCC2)c2c(n1)[nH]c1ccc(O)cc12 | Active | Active | Active
> 6.00 | Nc1nc(N2CCOCC2)c2c(n1)[nH]c1ccc(O)cc12 | Active | Active | Active
> 6.00 | COC1CCN(c2ncnc3[nH]c4ccc(O)cc4c23)CC1 | Active | Active | Active
> 6.00 | NC(=O)c1ccc2[nH]c3ncnc(N4CCOCC4)c3c2c1 | Active | Active | Active
> 6.00 | Nc1nc(N2CCC(O)CC2)c2c(n1)[nH]c1ccc(O)cc12 | Active | Active | Active
> 6.00 | O=C(O)C1CCN(c2ncnc3[nH]c4ccc(O)cc4c23)CC1 | Active | Active | Active
> 6.00 | Cc1nc(N2CCCC(O)C2)c2c(n1)[nH]c1ccc(O)cc12 (centres undefined) | Active | Active | Active
> 6.00 | Nc1nc(NC2CCCCC2)c2c(n1)[nH]c1ccc(O)cc12 | Active | Active | Active
> 6.00 | O=CN1CCN(c2ncnc3[nH]c4ccc(O)cc4c23)CC1 | Active | Active | Active
